System: CT26 cells
Test: Cell death type by FITC-annexin V and PI staining
Assay type: cell-based
Details: 5 μM VPF, 2 hours, ultrasound 5 minutes
Protocol: CT26 colorectal cells were cultured in an RPMI 1640 medium containing 10% fetal bovine serum (FBS) and 1% antibiotic-antimycotic. 5×10^6 of CT26 cells were treated with Ox@PEG-VPF and the controls for 2 hours based on 5 μM VPF, and then resuspended in 1 ml of the RPMI 1640 medium, followed by ultrasound treatment for 5 minutes.
After 100 μl of the CT26 cell suspension that had been treated with ultrasound was resuspended in 900 μl of the FITC-annexin V/PI mixed solution and maintained for 30 minutes, the resulting cells were washed twice with PBS and observed by confocal microscopy.
Specifically, the Ox@ PEG-VPF of the present invention reacted with a high concentration of ROS present in cancer cells to produce CO2 in the cells, and was treated with a FITC-labeled annexin compound (FITC-annexin V; excitation/emission wavelength—490/525 nm) and propidium iodide (PI; excitation/emission wavelength 535/617 nm) to confirm whether ICD occurs by the cavitation effect and cell membrane rupture caused by ultrasound.

With verteporfin [VPF] the “cell death type (FITC-annexin V / PI staining)” value was “induced the apoptosis of cancer cells”.
